Earlier results in US20250161386A1, “METHOD OF IMPROVING COGNITIVE FUNCTION IN ADULTS” (SEMPERA ORGANICS, INC., priority 2023, published 2025).

Columns and labels:
[1] = rat, oral administration of H. erinaceus mycelia extract
[2] = system: pro-brain-derived neurotrophic factor (BDNF); details: mice, after administration

Row | time of peak plasma concentration post dose [1] | Compound | circulating pro-BDNF [2]
1 | 270 min | CC(C)C1=C2[C@H]3CCC4=C(O)C(=O)[C@@]5(O)CO[C@H]6O[C@@H]([C@@H]4[C@]65O)[C@]3(C)CC[C@@]2(C)CC1 [erinacine S] | –
2 | – | CCCCCCCCCCCCCCCC(=O)OCc1cc(OC)c(C/C=C(\C)CCC=C(C)C)c(O)c1C=O [hericene A] | increase
